The record followed here is patent publication US9346817B2, “Dioxino- and oxazin-[2,3-D]pyrimidine PI3K inhibitor compounds and methods of use” (Genentech, Inc., priority 2012, dated 2016).

Data set [1] is described as follows: Brain protein binding in rats. It counts as in vitro ADME. The conditions noted are these: rat, read-out: Brain protein binding (mean bound %) (converted). How it is done:
Brain protein binding in rats was measured for Formula I exemplary compounds, including the following: […]

For data set [2], the system named is PC3 cells (prostate, PTEN mutation). In words: In vitro cell proliferation assay (CellTiter-Glo), PC3. The conditions noted are these: Homo sapiens, PC-3; Cell line: PC3; Tissue type: prostate; Mutation Status: PTEN. It counts as cell-based. How it is done:
(§1) The cytotoxic or cytostatic activity of Formula I exemplary compounds was measured by: establishing a proliferating mammalian tumor cell line in a cell culture medium, adding a Formula I compound, culturing the cells for a period from about 6 hours to about 5 days; and measuring cell viability (Example 902). Cell-based in vitro assays were used to measure viability, i.e. proliferation (IC50), cytotoxicity (EC50), and induction of apoptosis (caspase activation).
(§2) The in vitro potency of Formula I exemplary compounds was measured by the cell proliferation assay, CellTiter-Glo® Luminescent Cell Viability Assay, commercially available from Promega Corp., Madison, Wis. (Example 902). This homogeneous assay method is based on the recombinant expression of Coleoptera luciferase (U.S. Pat. No. 5,583,024; U.S. Pat. No. 5,674,713; U.S. Pat. No. 5,700,670) and determines the number of viable cells in culture based on quantitation of the ATP present, an indicator of metabolically active cells (Crouch et al (1993) J. Immunol. Meth. 160:81-88; U.S. Pat. No. 6,602,677). The CellTiter-Glo® Assay was conducted in 96 or 384 well format, making it amenable to automated high-throughput screening (HTS) (Cree et al (1995) AntiCancer Drugs 6:398-404). The homogeneous assay procedure involves adding the single reagent (CellTiter-Glo® Reagent) directly to cells cultured in serum-supplemented medium. Cell washing, removal of medium and multiple pipetting steps are not required. The system detects as few as 15 cells/well in a 384-well format in 10 minutes after adding reagent and mixing.
(§3) The homogeneous “add-mix-measure” format results in cell lysis and generation of a luminescent signal proportional to the amount of ATP present. The amount of ATP is directly proportional to the number of cells present in culture. The CellTiter-Glo® Assay generates a “glow-type” luminescent signal, produced by the luciferase reaction, which has a half-life generally greater than five hours, depending on cell type and medium used. Viable cells are reflected in relative luminescence units (RLU). The substrate, Beetle Luciferin, is oxidatively decarboxylated by recombinant firefly luciferase with concomitant conversion of ATP to AMP and generation of photons. The extended half-life eliminates the need to use reagent injectors and provides flexibility for continuous or batch mode processing of multiple plates. This cell proliferation assay can be used with various multiwell formats, e.g. 96 or 384 well format. Data can be recorded by luminometer or CCD camera imaging device. The luminescence output is presented as relative light units (RLU), measured over time.
(§4) The anti-proliferative effects of Formula I exemplary compounds were measured by the CellTiter-Glo® Assay (Example 902) against several tumor cell lines. Potency EC50 values were established for the tested compounds. The range of in vitro cell potency activities was about 100 nM to about 10 μM.
(§5) Efficacy of Formula I compounds was measured by a cell proliferation assay employing the following protocol (Promega Corp. Technical Bulletin TB288; Mendoza et al (2002) Cancer Res. 62:5485-5488):
(§6) 1. An aliquot of 100 μl of cell culture containing about 10^4 cells (PC3 (prostate cancer), Detroit562 (pharynx carcinoma), or MDAMB361.1 (breast cancer) in medium was deposited in each well of a 384-well, opaque-walled plate.
(§7) 2. Control wells were prepared containing medium and without cells.
(§8) 3. The compound was added to the experimental wells and incubated for 3-5 days.
(§9) 4. The plates were equilibrated to room temperature for approximately 30 minutes.
(§10) 5. A volume of CellTiter-Glo® Reagent equal to the volume of cell culture medium present in each well was added.
(§11) 6. The contents were mixed for 2 minutes on an orbital shaker to induce cell lysis.
(§12) 7. The plate was incubated at room temperature for 10 minutes to stabilize the luminescence signal.
(§13) 8. Luminescence was recorded and reported in graphs as RLU=relative luminescence units. […]
Background: Cellular ATP, detected with luciferase, serves as a proxy for viable cell number.

Data set [3] has as its system MDA-MB-361.1 cells (breast, PI3K mutation). The data set can be described thus: In vitro cell proliferation assay (CellTiter-Glo), MDA-MB-361.1. It counts as cell-based. The conditions noted are these: Cell line: MDA-MB-361.1; Tissue type: breast; Mutation Status: PI3K. Here is the method: as §1, §2, §3, §4, §5, §6, §7, §8, §9, §10, §11, §12, §13

With `Nc1ncc(-c2nc3c(c(N4CCOCC4)n2)OCCO3)cn1` [Compound 101, 5-(4-morpholino-6,7-dihydro-[1,4]dioxino[2,3-d]pyrimidin-2-yl)pyrimidin-2-amine], the fraction unbound in data set [1] was 0.285. Moreover, the figures for the concentration giving a half-maximal response (EC50) in data set [2] and in data set [3] were 1000 nM and 1100 nM, respectively.

In the case of `C[C@@H]1COc2nc(-c3cnc(N)nc3)nc(N3CCOCC3)c2O1` [Compound 102, 5-[(6R)-6-methyl-4-morpholino-6,7-dihydro-[1,4]dioxino[2,3-d]pyrimidin-2-yl]pyrimidin-2-amine], the fraction unbound in data set [1] was 0.2. Besides, the concentration for a half-maximal effect (EC50) – broadly, the concentration needed to bring the measured effect to its halfway point – in data set [2] is 557 nM; in data set [3] it was 370 nM.

Take `CC1COc2c(nc(-c3cnc(N)nc3)nc2N2CCOCC2)O1` (centres unmarked) [Compound 103, 5-(7-methyl-4-morpholino-6,7-dihydro-[1,4]dioxino[2,3-d]pyrimidin-2-yl)pyrimidin-2-amine]: the values for the EC50 in data set [2] and in data set [3] were 606 nM and 630 nM, respectively.

On to `CC1(C)COc2c(nc(-c3cnc(N)nc3)nc2N2CCOCC2)O1` [Compound 104, 5-(7,7-dimethyl-4-morpholino-6H-[1,4]dioxino[2,3-d]pyrimidin-2-yl)pyrimidin-2-amine], for which the EC50 in data set [2] came out at 406 nM; in data set [3], 577 nM.

For `Nc1ncc(-c2nc3c(c(N4CCOCC4)n2)OCC(C(F)(F)F)O3)cn1` (centres unmarked) [Compound 105, 5-[4-morpholino-7-(trifluoromethyl)-6,7-dihydro-[1,4]dioxino[2,3-d]pyrimidin-2-yl]pyrimidin-2-amine], in data set [1], the fraction unbound is 0.183. Moreover, the EC50 worked out at 500 nM in data set [2] and 275 nM in data set [3].

Take `Nc1ncc(-c2nc3c(c(N4CCOCC4)n2)OCC2(CC2)O3)cn1` [Compound 106, 5-(4-morpholinospiro[6H-[1,4]dioxino[2,3-d]pyrimidine-7,1′-cyclopropane]-2-yl)pyrimidin-2-amine]: the fraction unbound in data set [1] is 0.134. The 50% effective concentration (EC50) in data set [2] came out at 489 nM; in data set [3] it was 544 nM.

Take `Nc1ncc(-c2nc3c(c(N4CCOCC4)n2)OC(C2CC2)CO3)cn1` (centres unmarked) [Compound 107, 5-(6-cyclopropyl-4-morpholino-6,7-dihydro-[1,4]dioxino[2,3-d]pyrimidin-2-yl)pyrimidin-2-amine]: the EC50 in data set [2] was 1200 nM; in data set [3], 961 nM.

Take `CC(C)(C)C1COc2c(nc(-c3cnc(N)nc3)nc2N2CCOCC2)O1` (centres unmarked) [Compound 108, 5-(7-tert-butyl-4-morpholino-6,7-dihydro-[1,4]dioxino[2,3-d]pyrimidin-2-yl)pyrimidin-2-amine]: the values for the 50% effective concentration (EC50) in data set [2] and in data set [3] were 338 nM and 213 nM, respectively.

As to `CC1(C)COc2c(nc(-c3cccc(O)c3)nc2N2CCOCC2)O1` [Compound 109, 3-(7,7-dimethyl-4-morpholino-6H-[1,4]dioxino[2,3-d]pyrimidin-2-yl)phenol], the EC50 in data set [2] worked out at 182 nM; in data set [3] it was 445 nM.

For the compound `COc1ncc(-c2nc3c(c(N4CCOCC4)n2)OCC(C)(C)O3)cn1` [Compound 110, 2-(2-methoxypyrimidin-5-yl)-7,7-dimethyl-4-morpholino-6H-[1,4]dioxino[2,3-d]pyrimidine], the EC50 in data set [2] came out at 4800 nM; in data set [3], 4100 nM.

Take `CC1(C)COc2c(nc(-c3ccc(N)nc3)nc2N2CCOCC2)O1` [Compound 111, 5-(7,7-dimethyl-4-morpholino-6H-[1,4]dioxino[2,3-d]pyrimidin-2-yl)pyridin-2-amine]: the results for the EC50 in data set [2] and in data set [3] were 480 nM and 545 nM, respectively.

With `CC(=O)Nc1ccc(-c2nc3c(c(N4CCOCC4)n2)OCC(C)(C)O3)cc1` [Compound 112, N-[4-(7,7-dimethyl-4-morpholino-6H-[1,4]dioxino[2,3-d]pyrimidin-2-yl)phenyl]acetamide], the EC50 in data set [2] was determined as 2100 nM; in data set [3], 1800 nM.

For `CNc1ccc(-c2nc3c(c(N4CCOCC4)n2)OCC(C)(C)O3)cn1` [Compound 113, 5-(7,7-dimethyl-4-morpholino-6H-[1,4]dioxino[2,3-d]pyrimidin-2-yl)-N-methyl-pyridin-2-amine], the EC50 in data set [2] came out at 2100 nM; in data set [3], 2000 nM.

Turning to `CC1(C)COc2c(nc(-c3cccc(NS(C)(=O)=O)c3)nc2N2CCOCC2)O1` [Compound 114, N-[3-(7,7-dimethyl-4-morpholino-6H-[1,4]dioxino[2,3-d]pyrimidin-2-yl)phenyl]methanesulfonamide], the values for the EC50 in data set [2] and in data set [3] were over 10000 nM and over 7500 nM, respectively.

Regarding `CC1(C)COc2c(nc(-c3ccc4[nH]ccc4c3)nc2N2CCOCC2)O1` [Compound 115, 2-(1H-indol-5-yl)-7,7-dimethyl-4-morpholino-6H-[1,4]dioxino[2,3-d]pyrimidine], the EC50 came out at 2300 nM in data set [2] and 1800 nM in data set [3].

In the case of `Nc1ncc(-c2nc3c(c(N4CCOCC4)n2)OCC(CF)O3)cn1` (centres unmarked) [Compound 116, 5-[7-(fluoromethyl)-4-morpholino-6,7-dihydro-[1,4]dioxino[2,3-d]pyrimidin-2-yl]pyrimidin-2-amine], the fraction unbound in data set [1] is 0.17. Besides, the EC50 worked out at 760 nM in data set [2] and 730 nM in data set [3].

Regarding `Nc1ncc(-c2nc3c(c(N4CCOCC4)n2)OCC(CO)O3)cn1` (centres unmarked) [Compound 117, [2-(2-aminopyrimidin-5-yl)-4-morpholino-6,7-dihydro-[1,4]dioxino[2,3-d]pyrimidin-7-yl]methanol], the 50% effective concentration (EC50) in data set [2] was found to be 759 nM; in data set [3] it was 669 nM.

`CN1CCOc2c1nc(-c1cnc(N)nc1)nc2N1CCOCC1` [Compound 119, 5-(8-methyl-4-morpholino-7,8-dihydro-6H-pyrimido[5,4-b][1,4]oxazin-2-yl)pyrimidin-2-amine]: the EC50 in data set [2] is 3100 nM; in data set [3], 2600 nM.

`CN1C(=O)COc2c(N3CCOCC3)nc(-c3cnc(N)nc3)nc21` [Compound 120, 2-(2-aminopyrimidin-5-yl)-8-methyl-4-morpholino-6H-pyrimido[5,4-b][1,4]oxazin-7(8H)-one]: the fraction unbound in data set [1] is 0.16. Also, the half-maximal effective concentration (EC50) in data set [2] was 589 nM; in data set [3], 570 nM.
